In the supplement of paper PMC11061612:

Key:
Assay in all cases: combination Emax (second highest fraction inhibited in the dose matrix, 72 h); higher = more inhibition; extreme values may be limits of the assay
[1] = system: HT55 (Colorectal Carcinoma)
Method in brief: (§1)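 Cell lines grown in DMEM/F12 or RPMI with 10% FBS were plated in 1536-well plates and held 24 hours at 37°C, 5% CO2 before 72 hours of exposure to two-drug dose matrices, with DMSO typically at 0.2%. CellTiter-Glo 2.0 luminescence gave viability, which was converted to inhibition. Vehicle wells were set to 0 and blank wells to 1. Combination Emax is the second-highest inhibition in the matrix, and Bliss excess is the observed combination effect minus the expected EA + EB − EA·EB, where EA and EB are the single-agent effects.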

[2] = system: EPLC-272H (Other Solid Carcinomas)
Method in brief: as §1

EW-16 (Ewing's Sarcoma) = system: EW-16 (Ewing's Sarcoma)
Method in brief: as §1

[3] = system: HCC1428 (Breast Carcinoma)
Method in brief: as §1

[4] = system: G-402 (Other Solid Carcinomas)
Method in brief: as §1

[5] = system: ESO26 (Esophageal Adenocarcinoma)
Method in brief: as §1

5637 (Bladder Carcinoma) = system: 5637 (Bladder Carcinoma)
Method in brief: as §1

[6] = system: SW620 (Colorectal Carcinoma)
Method in brief: as §1

NB13 (Neuroblastoma) = system: NB13 (Neuroblastoma)
Method in brief: as §1

[7] = system: Jurkat (T-Lymphoblastic Leukemia)
Method in brief: as §1

KP-N-YN (Neuroblastoma) = system: KP-N-YN (Neuroblastoma)
Method in brief: as §1

[8] = system: NCI-H2087 (Lung Adenocarcinoma)
Method in brief: as §1

[9] = system: CGTH-W-1 (Thyroid Gland Carcinoma)
Method in brief: as §1

[10] = system: NCI-H2228 (Lung Adenocarcinoma)
Method in brief: as §1

[11] = system: CESS (Acute Myeloid Leukemia)
Method in brief: as §1

HCC70 (Breast Carcinoma) = system: HCC70 (Breast Carcinoma)
Method in brief: as §1

RH-41 (Rhabdomyosarcoma) = system: RH-41 (Rhabdomyosarcoma)
Method in brief: as §1

[12] = system: SK-HEP-1 (Hepatocellular Carcinoma)
Method in brief: as §1

[13] = system: MHH-ES-1 (Ewing's Sarcoma)
Method in brief: as §1

[14] = system: JVM-2 (B-Cell Non-Hodgkin's Lymphoma)
Method in brief: as §1

Structure (SMILES)	combination Emax [1]	combination Emax [2]	combination Emax (EW-16 (Ewing's Sarcoma))	combination Emax [3]	combination Emax [4]	combination Emax [5]	combination Emax (5637 (Bladder Carcinoma))	combination Emax [6]	combination Emax (NB13 (Neuroblastoma))	combination Emax [7]	combination Emax (KP-N-YN (Neuroblastoma))	combination Emax [8]	combination Emax [9]	combination Emax [10]	combination Emax [11]	combination Emax (HCC70 (Breast Carcinoma))	combination Emax (RH-41 (Rhabdomyosarcoma))	combination Emax [12]	combination Emax [13]	combination Emax [14]
Cc1c2c(nn1C)CSCc1cc(n(C)n1)CSc1cc(c3ccccc3c1)OCCCc1c(C(=O)O)n(C)c3c-2c(Cl)ccc13 [AZD5991] + C[C@@H]1COCCN1C2=NC(=NC(=C2)C3(CC3)[S@](=N)(=O)C)C4=C5C=CNC5=NC=C4 [AZD6738] (first compound max 1 µM, 7x7, partner max 10 µM)	0.503	0.993	0.756	0.974	0.995	0.544	0.787	0.543	0.952	0.974	0.968	0.588	0.389	0.433	0.958	0.967	1	0.354	0.837	0.912
Cc1c2c(nn1C)CSCc1cc(n(C)n1)CSc1cc(c3ccccc3c1)OCCCc1c(C(=O)O)n(C)c3c-2c(Cl)ccc13 [AZD5991] + C[C@@H](Nc1cc(F)cc(F)c1)c1cc(C(=O)N(C)C)cc2c(=O)cc(N3CCOCC3)oc12 [AZD8186] (first compound max 1 µM, 7x7, partner max 3 µM)	0.272	0.916	0.281	0.964	0.942	0.284	0.25	0.206	0.331	0.913	0.171	0.167	0.319	0.321	0.554	1	0.99	0.356	0.665	0.712
Cc1c2c(nn1C)CSCc1cc(n(C)n1)CSc1cc(c3ccccc3c1)OCCCc1c(C(=O)O)n(C)c3c-2c(Cl)ccc13 [AZD5991] + Cc1cc2ncnn2cc1Nc1ncc2c(n1)n(C1CCOCC1)c(=O)n2C [AZD7648] (first compound max 1 µM, 7x7, partner max 10 µM)	0.242	0.94	0.299	0.977	0.939	0.198	0.233	0.213	0.245	0.951	0.228	0.187	0.181	0.354	0.416	0.926	1	0.295	0.688	0.68
Cc1c2c(nn1C)CSCc1cc(n(C)n1)CSc1cc(c3ccccc3c1)OCCCc1c(C(=O)O)n(C)c3c-2c(Cl)ccc13 [AZD5991] + Cn1cnc2c(F)c(Nc3ccc(Br)cc3Cl)c(C(=O)NOCCO)cc21 [Selumetinib] (first compound max 1 µM, 7x7, partner max 3 µM)	0.692	0.94	0.258	0.977	0.955	0.274	0.37	0.643	0.263	0.927	0.204	0.588	0.181	0.249	0.289	0.994	1	0.311	0.672	0.646
C[C@@H]1COCCN1c1cc(C2([S@](C)(=N)=O)CC2)nc(-c2ccnc3[nH]ccc23)n1 [AZD6738] + O=C(c1cc(Cc2n[nH]c(=O)c3ccccc23)ccc1F)N1CCN(C(=O)C2CC2)CC1 [Olaparib] (first compound max 10 µM, 7x7, partner max 10 µM)	0.446	0.824	0.808	0.261	0.627	0.319	0.726	0.57	0.947	0.965	0.76	0.534	0.386	0.523	0.864	0.722	0.808	0.498	0.868	0.836
NC1(C(=O)N[C@@H](CCO)c2ccc(Cl)cc2)CCN(c2ncnc3[nH]ccc23)CC1 [Capivasertib] + CC(=O)c1c(C)c2cnc(Nc3ccc(N4CCNCC4)cn3)nc2n(C2CCCC2)c1=O [Palbociclib] (first compound max 10 µM, 7x7, partner max 10 µM)	0.607	0.891	0.44	0.18	0.605	0.498	0.387	0.473	0.392	0.849	0.301	0.244	0.349	0.506	0.708	0.657	0.945	0.673	0.5	0.823
NC1(C(=O)N[C@@H](CCO)c2ccc(Cl)cc2)CCN(c2ncnc3[nH]ccc23)CC1 [Capivasertib] + CC(C)n1c(=O)n(C)c2cnc3cc(F)c(-c4ccc(OCCCN5CCCCC5)nc4)cc3c21 [AZD1390] (first compound max 10 µM, 7x7, partner max 0.3 µM)	0.381	0.632	0.296	0.186	0.398	0.449	0.336	0.227	0.254	0.697	0.359	0.206	0.357	0.46	0.456	0.707	0.921	0.318	0.354	0.707
NC1(C(=O)N[C@@H](CCO)c2ccc(Cl)cc2)CCN(c2ncnc3[nH]ccc23)CC1 [Capivasertib] + CCN(CCO)CCCOc1ccc2c(Nc3cc(CC(=O)Nc4cccc(F)c4)[nH]n3)ncnc2c1 [AZD2811] (first compound max 10 µM, 7x7, partner max 1 µM)	0.576	0.708	0.634	0.465	0.658	0.52	0.572	0.328	0.534	0.717	0.608	0.256	0.354	0.533	0.654	0.745	0.943	0.533	0.665	0.755
NC1(C(=O)N[C@@H](CCO)c2ccc(Cl)cc2)CCN(c2ncnc3[nH]ccc23)CC1 [Capivasertib] + COc1nnc2ccc(N3CCC(c4ccc(OCCN5CCN(C)C(=O)[C@H]5C)cc4)CC3)nn12 [AZD5153] (first compound max 10 µM, 7x7, partner max 1 µM)	0.572	0.944	0.515	0.571	0.723	0.753	0.627	0.427	0.775	0.992	0.478	0.301	0.408	0.52	0.747	0.876	1	0.497	0.717	0.79
NC1(C(=O)N[C@@H](CCO)c2ccc(Cl)cc2)CCN(c2ncnc3[nH]ccc23)CC1 [Capivasertib] + C[C@@H]1COCCN1C2=NC(=NC(=C2)C3(CC3)[S@](=N)(=O)C)C4=C5C=CNC5=NC=C4 [AZD6738] (first compound max 10 µM, 7x7, partner max 10 µM)	0.545	0.885	0.784	0.318	0.771	0.599	0.564	0.545	0.896	0.961	0.962	0.486	0.398	0.575	0.91	0.817	0.976	0.318	0.645	0.864
NC1(C(=O)N[C@@H](CCO)c2ccc(Cl)cc2)CCN(c2ncnc3[nH]ccc23)CC1 [Capivasertib] + Cn1cnc2c(F)c(Nc3ccc(Br)cc3Cl)c(C(=O)NOCCO)cc21 [Selumetinib] (first compound max 10 µM, 7x7, partner max 10 µM)	0.767	0.982	0.393	0.171	0.513	0.523	0.395	0.712	0.369	0.686	0.391	0.539	0.47	0.58	0.672	0.908	0.934	0.197	0.379	0.737
COc1cccc2c1C(=O)c1c(O)c3c(c(O)c1C2=O)C[C@@](O)(C(=O)CO)C[C@@H]3O[C@H]1C[C@H](N)[C@H](O)[C@H](C)O1 [Doxorubicin] + Cc1cc2ncnn2cc1Nc1ncc2c(n1)n(C1CCOCC1)c(=O)n2C [AZD7648] (first compound max 1 µM, 7x7, partner max 10 µM)	0.678	0.539	0.913	0.168	0.949	0.801	0.546	0.787	0.923	0.972	0.698	0.655	0.749	0.742	0.949	0.488	0.95	0.872	0.916	0.983
CS(=O)(=O)CCNCc1ccc(-c2ccc3ncnc(Nc4ccc(OCc5cccc(F)c5)c(Cl)c4)c3c2)o1 [Lapatinib] + C[C@@H](Oc1cc(-c2cnn(C3CCNCC3)c2)cnc1N)c1c(Cl)ccc(F)c1Cl [Crizotinib] (first compound max 10 µM, 7x7, partner max 10 µM)	0.931	0.959	0.969	0.471	0.879	0.854	1	0.921	0.949	0.947	0.755	0.395	0.853	0.769	0.896	0.685	0.991	0.255	0.912	0.918
